Laboratory results from paper PMC7180830, “Scaffold Hopping in Discovery of HIV-1 Non-Nucleoside Reverse Transcriptase Inhibitors: From CH(CN)-DABOs to CH(CN)-DAPYs” (Molecules, 2020).
Where two headings read alike, the source gives them in different places.

Legend:
[1] = test system: HIV-1 E138K mutant strain; assay: Anti-HIV assay against E138K mutant strain in MT-4 cells; format: cell-based; conditions: Human immunodeficiency virus 1, MT4, read-out: EC50 E138K
Protocol: (§2) Evaluation of the antiviral activity of the compounds against HIV in MT-4 cells was performed using the MTT assay as previously described [24, 25]. […] Prior to use in our assays, every freshly grown virus stock was the subject of a genotypic analysis. In addition to the genotypic analysis, every stock was subject to a phenotypic analysis using a panel of relevant reference compounds in MT-4 cells. […] Stock solutions (10× final concentration) of test compounds were added in 25 μL volumes to two series of triplicate wells so as to allow simultaneous evaluation of their effects on mock- and HIV-infected cells at the beginning of each experiment. Serial 5-fold dilutions of test compounds were made directly in flat-bottomed 96-well microtiter trays using a Biomek 3000 robot (Beckman instruments, Fullerton, CA). Untreated HIV- and mock-infected cell samples were included as controls. HIV stock (50 μL) at 100–300 CCID50 (50% cell culture infectious doses) and culture medium (final 200 μL volume per well) were added to either the infected or mock-infected wells of the microtiter tray. Mock-infected cells were used to evaluate the effects of test compounds on uninfected cells in order to assess the cytotoxicity of the test compounds. Exponentially growing MT-4 cells were centrifuged for 5 min at 220× g and the supernatant was discarded. The MT-4 cells were resuspended at 6 × 10^5 cells/mL and 50 μL volumes were transferred to the microtiter tray wells. Five days after infection, the viability of mock- and HIV-infected cells was examined spectrophotometrically using the MTT assay. The MTT assay is based on the reduction of yellow colored 3-(4,5-dimethylthiazol-2-yl)-2,5-diphenyltetrazolium bromide (MTT) (Acros Organics, Geel, Belgium) by mitochondrial dehydrogenase activity in metabolically active cells to a blue-purple formazan that can be measured spectrophotometrically. The absorbances were read in an eight-channel computer-controlled photometer (Infinite M1000, Tecan, Männedorf, Switzerland) at two wavelengths (540 and 690 nm). All data were calculated using the median absorbance value of three wells.

HIV-1 IIIB = assay: Anti-HIV assay against wild-type HIV-1 (IIIB) in MT-4 cells, MTT method; format: cell-based; conditions: for SI (selectivity index, ratio CC50/EC50 (WT)): CC50/EC50 WT HIV-1 IIIB
Protocol: (§1) Untreated HIV- and mock-infected cell samples were included as controls. […] Five days after infection, the viability of mock- and HIV-infected cells was examined spectrophotometrically using the MTT assay. […] All data were calculated using the median absorbance value of three wells.

[2] = test system: HIV-1 K103N mutant strain; assay: Anti-HIV assay against K103N mutant strain in MT-4 cells; format: cell-based; conditions: Human immunodeficiency virus 1, MT4, read-out: EC50 K103N
Protocol: as §2

[3] = test system: HIV-1 K103N + Y181C mutant strain; assay: Anti-HIV assay against double mutant K103N + Y181C in MT-4 cells; format: cell-based; conditions: Human immunodeficiency virus 1, MT4, read-out: EC50 K103N + Y181C
Protocol: as §2

[4] = test system: HIV-1 Y181C mutant strain; assay: Anti-HIV assay against Y181C mutant strain in MT-4 cells; format: cell-based; conditions: Human immunodeficiency virus 1, MT4, read-out: EC50 Y181C
Protocol: as §2

[5] = Cytotoxicity in mock-infected MT-4 cells, MTT method; conditions: human, mock-infected (uninfected) MT-4 cells
Protocol: as §1

[6] = test system: HIV-1 L100I mutant strain; assay: Anti-HIV assay against L100I mutant strain in MT-4 cells; format: cell-based; conditions: Human immunodeficiency virus 1, MT4, read-out: EC50 L100I
Protocol: as §2

[7] = test system: HIV-1 F227L + V106A mutant strain; assay: Anti-HIV assay against double mutant F227L + V106A in MT-4 cells; format: cell-based; conditions: Human immunodeficiency virus 1, MT4, read-out: EC50 F227L + V106A
Protocol: as §2

WT HIV-1 RT = target: T1, WT HIV-1 RT (Human immunodeficiency virus type 1 group M subtype B, UniProt P03366); assay: Reverse transcriptase assay (EnzCheck kit, PicoGreen); format: biochemical; conditions: recombinant wild type p66/p51 HIV-1 RT
T1 construct: Recombinant wild type p66/p51 HIV-1 RT; made in house
Protocol: The RT assay was performed with the EnzCheck Reverse Transcriptase Assay kit (Molecular Probes, Invitrogen), as described by the Manufacturer. The assay is based on the dsDNA quantitation reagent PicoGreen. […] This condition is met in the assay. A poly(rA) template of approximately 350 bases long and an oligo (dT)16 primer are annealed in a molar ratio of 1:1.2 (60 min at room temperature). Then, 52 ng of the RNA/DNA is brought into each well of a 96-well plate in a volume of 20 μL polymerization buffer (60 mM Tris-HCl, 60 mM KCl, 8 mM MgCl2, 13 mM DTT, 100 μM dTTP, pH 8.1). Then, 5 μL of RT enzyme solution, diluted to a suitable concentration in enzyme dilution buffer (50 mM Tris-HCl, 20% glycerol, 2 mM DTT, pH 7.6), is added. The reactions are incubated at 25 °C for 40 min and then stopped by the addition of EDTA (15 mM fc). Heteroduplexes are then detected by addition of PicoGreen. Signals are read using an excitation wavelength of 490 nm and emission detection at 523 nm using a spectrofluorometer (Safire 2, Tecan). To test the activity of compounds against RT, 1 μL of compound in DMSO was added to each well before the addition of RT enzyme solution. Control wells without compound contained the same amount of DMSO. Results are expressed as relative fluorescence, i.e., the fluorescence signal of the reaction mix with compound divided by the signal of the same reaction mix without compound.

[8] = Human immunodeficiency virus 1, IIIB, MT4, read-out: EC50 HIV-1 IIIB
[9] = Human immunodeficiency virus 1, MT4, wild-type HIV-1 IIIB, MT-4 cells, protection against HIV-induced cytopathogenicity, read-out: EC50 HIV-1 IIIB

SMILES | EC50 [1] [nM] | EC50 (HIV-1 IIIB; [8]) [nM] | EC50 [2] [nM] | EC50 [3] [µM] | EC50 [4] [nM] | CC50 at 5 days [5] [µM] | EC50 [6] [nM] | EC50 [7] [µM] | SI (selectivity index, ratio CC50/EC50 (WT)) (HIV-1 IIIB; MT-4 cells) | melting point [°C] | EC50 (HIV-1 IIIB; [9]) [nM] | IC50 (WT HIV-1 RT) [nM] | fold increase of antiviral activity compared with A2 (HIV-1 IIIB; WT HIV-1 IIIB, relative to A2) [fold]
N#Cc1ccc(Nc2nccc(C(C#N)c3ccc(C#N)cc3Cl)n2)cc1 (stereo not shown) [Compound A8, 4-(4-(cyano-(2-chloro-4-cyanophenyl)methyl)-pyrimidin-2-ylamino)benzonitrile] | 2200 ± 350 | 63 ± 9 | 2130 ± 220 | > 4.59 | 1870 ± 210 | 4.6 ± 2.7 | ≥ 2370 | > 4.59 | – | – | – | – | –
N#Cc1ccc(Nc2nccc(C(C#N)c3ccc(C#N)cc3C(F)(F)F)n2)cc1 (stereo not shown) [Compound A6, 4-(4-(cyano-(2-trifluoromethyl-4-cyanophenyl)methyl)-pyrimidin-2-ylamino)benzonitrile] | > 6230 | 490 ± 300 | > 6230 | > 6.23 | 2290 ± 20 | 6.2 ± 1.4 | > 6230 | > 6.23 | 13 | 236.7 to 237.5 | – | – | –
Cc1cc(C#N)c(Br)cc1C(C#N)c1ccnc(Nc2ccc(C#N)cc2)n1 (stereo not shown) [Compound A12, 4-(4-(cyano-(2-methyl-5-bromo-4-cyanophenyl)methyl)-pyrimidin-2-ylamino)benzonitrile] | 3730 ± 590 | 240 ± 40 | 2520 ± 420 | > 13.2 | 2780 ± 360 | 13.2 ± 1.6 | > 13200 | > 13.2 | – | – | – | – | –
Cc1cc(C#N)cc(C)c1Oc1nc(Nc2ccc(C#N)cc2)nc(N)c1Br [Etravirine, etravirine, reference compound] | 8 ± 4 | 5 ± 1 | 3 ± 1 | 0.04 ± 0.01 | 17 ± 3 | > 4.6 | 8 ± 2 | 0.014 ± 0.005 | – | – | – | – | –
N#Cc1ccc(Nc2nccc(C(C#N)c3c(Cl)cc(C#N)cc3Cl)n2)cc1 (stereo not shown) [Compound A10, 4-(4-(cyano-(2,6-dichloro-4-cyanophenyl)methyl)-pyrimidin-2-ylamino)benzonitrile] | 2190 ± 220 | 82 ± 20 | 1780 ± 120 | > 4.49 | 2200 ± 270 | 4.5 ± 1.3 | 2320 ± 480 | > 4.49 | 55 | 152.5 to 153.2 | – | – | –
Cc1cc(C(C#N)c2ccnc(Nc3ccc(C#N)cc3)n2)ccc1C#N (stereo not shown) [Compound A2, 4-(4-(cyano-(3-methyl-4-cyanophenyl)methyl)-pyrimidin-2-ylamino)benzonitrile] | > 16100 | 1170 ± 340 | > 16100 | > 16.1 | > 16100 | 16.1 ± 3.6 | > 16100 | > 16.1 | 14 | 223.7 to 224.9 | – | – | –
N#Cc1ccc(Nc2nccc(C(C#N)c3ccc(C#N)cc3)n2)cc1 (stereo not shown) [Compound A1, 4-(4-(cyano-(4-cyanophenyl)methyl)-pyrimidin-2-ylamino)benzonitrile] | > 32700 | 3270 ± 2250 | > 32700 | > 32.7 | 11300 ± 1510 | 32.7 ± 9.9 | ≥ 12300 | > 32.7 | – | – | – | – | –
N#Cc1ccc(Nc2nccc(C(C#N)c3ccc(C#N)cc3Br)n2)cc1 (stereo not shown) [Compound A9, 4-(4-(cyano-(2-bromo-4-cyanophenyl)methyl)-pyrimidin-2-ylamino)benzonitrile] | 2310 ± 20 | 79 ± 20 | ≥ 1880 | > 3.35 | 1880 ± 420 | 3.4 ± 0.3 | > 3350 | > 3.35 | 42 | 223.5 to 224.7 | – | – | –
Cc1ccnc2c1NC(=O)c1cccnc1N2C1CC1 [Nevirapine, nevirapine, reference compound] | 200 ± 150 | – | 4700 ± 630 | > 15 | – | > 15 | 980 ± 390 | ≥ 4.28 | – | – | 200 ± 100 | – | –
Cc1cc(/C=C/C#N)cc(C)c1Nc1ccnc(Nc2ccc(C#N)cc2)n1 [Rilpivirine, rilpivirine, reference compound] | 3 ± 1 | 1.6 ± 0.3 | 1 ± 0.2 | 0.009 ± 0.002 | 3 ± 1 | 5.9 ± 0.3 | 2 ± 1 | 0.04 ± 0.01 | 3747 | – | – | – | –
Cc1cnc(Nc2ccc(C#N)cc2)nc1C(C#N)c1ccc(C#N)cc1F (stereo not shown) [Compound B2, 4-(4-(cyano-(2-fluoro-4-cyanophenyl)methyl)-5 methylpyrimidin-2-ylamino)benzonitrile] | 970 ± 140 | 40 ± 20 | 1070 ± 370 | > 20.6 | 1590 ± 180 | 20.6 ± 3.6 | 3040 ± 1130 | > 20.6 | – | – | – | 220 ± 50 | –
COc1cc(C(C#N)c2ccnc(Nc3ccc(C#N)cc3)n2)ccc1C#N (stereo not shown) [Compound A4, 4-(4-(cyano-(3-methoxy-4-cyanophenyl)methyl)-pyrimidin-2-ylamino)benzonitrile] | ≥ 56600 | 11700 ± 12100 | ≥ 62200 | ≥ 65.7 | ≥ 48100 | 78.4 ± 10.4 | ≥ 61400 | ≥ 61 | 7 | 156.2 to 157 | – | – | –
Cc1cc(C#N)ccc1C(C#N)c1ccnc(Nc2ccc(C#N)cc2)n1 (stereo not shown) [Compound A3, 4-(4-(cyano-(2-methyl-4-cyanophenyl)methyl)-pyrimidin-2-ylamino)benzonitrile] | 3040 ± 390 | 69 ± 8 | 1960 ± 450 | > 10.9 | 1710 ± 130 | 10.9 ± 3.6 | 5030 ± 550 | > 10.9 | 157 | 213.5 to 214.6 | – | – | 17
N#Cc1ccc(Nc2nccc(C(C#N)c3ccc(C#N)cc3F)n2)cc1 (stereo not shown) [Compound A7, 4-(4-(cyano-(2-fluoro-4-cyanophenyl)methyl)-pyrimidin-2-ylamino)benzonitrile] | > 10400 | 240 ± 160 | > 10400 | > 10.4 | > 10400 | 10.3 ± 4.5 | > 10400 | > 10.4 | 43 | 165.7 to 166.5 | – | – | –
O=C1Nc2ccc(Cl)cc2[C@@](C#CC2CC2)(C(F)(F)F)O1 [Efavirenz, efavirenz, reference compound] | 5 ± 2 | – | 80 ± 10 | 0.24 ± 0.06 | 6 ± 1 | > 6.3 | 40 ± 8 | 0.28 ± 0.07 | >3939 | – | 3 ± 1 | – | –
Cc1c(C(C#N)c2ccnc(Nc3ccc(C#N)cc3)n2)ccc(C#N)c1Cl (stereo not shown) [Compound A11, 4-(4-(cyano-(2-methyl-3-chloro-4-cyanophenyl)methyl)-pyrimidin-2-ylamino)benzonitrile] | > 6110 | 300 ± 30 | > 6110 | > 6.11 | > 6110 | 6.1 ± 0.5 | 2320 ± 480 | > 6.11 | – | – | – | – | –
